Consider seven compounds from US20170165363A1, “CANCER CELL MIGRATION INHIBITORS AND THEIR USE IN THERAPEUTIC TREATMENTS” (THE JOHNS HOPKINS UNIVERSITY, priority 2015, published 2017).

In this experiment the test system is human fibrosarcoma HT1080 cells. The experiment can be described thus: Velocity of matrix-embedded cells in 3D collagen I matrix (live-cell tracking). Type of experiment: cell-based. The settings on record: for cell velocity: human fibrosarcoma cells embedded in a 3D matrix at LD (ρ=10) and HD (ρ=50), compared to cells exposed to fresh medium (0); for cell-density-dependent migration: matrix-embedded cells at low and high cell densities; for cell velocity / cell migration on addition of recombinant cytokine: HT1080 seeded at low density (10 cells/mm^3), combination at the precise concentrations found at 50 cells/mm^3, ratio 5:2. The procedure: HT1080 cells were embedded in 2mg/ml type I collagen gel as described previously by Fraley et al^20. Briefly, cell suspensions containing 5000 to 75,000 cells in 1:1 (v/v) ratio of cell culture media and reconstitution buffer were mixed with appropriate volume of soluble rat-tail collagen I (Corning Inc.) to obtain a final collagen I concentration of 2 mg/ml. A calculated amount of 1M NaOH was added quickly and the final solution was mixed well to bring the pH to ˜7. The cell suspensions was added to a 24-well coverslip-bottom cell-culture dish and immediately transferred to an incubator maintained at 36° C. to allow polymerization. Fresh medium was added 1 h before imaging. MDA MB 231 and U-87 cells were embedded in 1 mg/ml type I collagen matrix
Phase-contrast images of matrix-embedded cells were recorded 2 min apart for 16.5 h using a Cascade 1K CCD camera (Roper Scientific) mounted on a Nikon TE2000 microscope with a 10× objective lens. Single cells were tracked using Metamorph imaging software. A custom MATLAB program calculated the velocity for each cell using the x- and y-coordinates obtained from tracking data using the following equation: […]
Recombinant IL-6 and IL-8 (R&D systems) reconstituted in DPBS (Life technologies) were added to matrix embedded cells with a cell density of 10 cells/mm^3 and imaged as described above (See velocity and protrusion topology of matrix embedded cells). Matrix embedded cells with cell densities of 10 cells/mm^3 and 50 cells/mm^3 were exposed to specific IL-6 and IL-8 functional antibodies (Proteintech) at a concentration of 0.5 μg/mL. Matrix embedded cells with cell densities of 10 cells/mm^3 and 50 cells/mm^3 were exposed to Tocilizumab (Roche) and Reparixin (Dompe pharmaceuticals) STAT3 and WASF3 activity
Matrix embedded with cell densities of 10 cells/mm^3 and 50 cells/mm^3 were exposed to JAK2 inhibitor, AG-490 (Santa Cruz Biotechnology), STAT3 inhibitor, S31-201, (Santa Cruz Biotechnology) and ARP 2/3 complex inhibitor, CK 666, (Sigma-Aldrich) for 1 h before cells were imaged as described above. (See velocity and protrusion topology of matrix embedded cells)

In the case of “Tocilizumab: a recombinant humanized, anti-human IL-6 receptor monoclonal antibody currently used in the treatment of Rheumatoid Arthritis”, the cell velocity result is given as “decreased cell velocity”.

For the compound `Cc1[nH]c2ccccc2c1CCNC(=O)c1ccccc1F` [CK666], the cell velocity entry is “Decreased cell velocity” and the cell-density-dependent migration result was “prevented cell-density-dependent migration”.

For `N#C/C(=C/c1ccc(O)c(O)c1)C(=O)NCc1ccccc1` [AG-490], the cell velocity entry is “Decreased cell velocity” and the cell-density-dependent migration entry is “prevented cell-density-dependent migration”.

With `CC(C)Cc1ccc([C@@H](C)C(=O)NS(C)(=O)=O)cc1` [Reparixin, (2R)-2-[4-(2-methylpropyl)phenyl]-N-methylsulfonylpropanamide], the cell velocity result is listed as “decreased cell velocity”.

On to “recombinant IL-6: human recombinant IL-6 (R&D systems)”, for which the “cell velocity / cell migration on addition of recombinant cytokine” value (shortened to “cell velocity / cell migration”) is on record as “do not increase cell velocity”. The “cell velocity / cell migration” value (listed as IL-6) is “no effect on cell migration”.

Regarding `Cc1ccc(S(=O)(=O)OCC(=O)Nc2ccc(C(=O)O)c(O)c2)cc1` [S3I-201], the cell velocity result is “Decreased cell velocity” and the cell-density-dependent migration result is listed as “prevented cell-density-dependent migration”.

As to “recombinant IL-8: human recombinant IL-8 (R&D systems)”, the “cell velocity / cell migration” value is recorded as “do not increase cell velocity”. In addition, the “cell velocity / cell migration” value (listed as IL-8) is “no effect on cell migration”.
